According to US11479563B2, “Biphenyl compound or salt thereof” (TAIHO PHARMACEUTICAL CO., LTD., priority 2017, dated 2022):
Structures can show the parent of a compound that is named as a salt.

Legend:
[1] = system: NCI-H1417 cells (human small-cell lung cancer cell lines); assay: cells; conditions: NCI-H1417, read-out: Cell-Growth Inhibition Test: NCI-H1417 Cells IC50 (nM);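 also: growth of NCI-H1417 cells over 10 days at 37 °C, read as viable-cell luminescence by CellTiter-Glo 2.0, expressed as % of DMSO-only control wells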
[2] = system: HEL cells (human acute myelocytic leukemia cell lines); assay: cells; conditions: read-out: Cell-Growth Inhibition Test: HEL Cells IC50 (nM);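 also: viable cell count by CellTiter-Glo 2.0 luminescence after 5 days of culture at 37 °C, growth expressed relative to DMSO-only wells as 100%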
[3] = system: NCI-H146 cells (human small-cell lung cancer cell lines); assay: Cell-growth inhibition test: NCI-H146 cells; assay type: cell-based; conditions: Homo sapiens, NCI-H146, read-out: Cell-Growth Inhibition Test: NCI-H146 Cells IC50 (nM)
Procedure: Under the following conditions, an in vitro cell-growth inhibition test was performed with respect to HEL cells (human acute myelocytic leukemia cell lines), NCI-H1417 cells (human small-cell lung cancer cell lines), and NCI-H146 cells (human small-cell lung cancer cell lines).
The cells with the compound of the present invention or with dimethylsulfoxide alone were cultured at 37° C. in a 5% carbon-dioxide-containing incubator for 5 days (HEL cells) or 10 days (NCI-H1417 cells and NCI-H146 cells). After culture, the plate was allowed to stand at room temperature for 30 minutes, and 100 μL of the supernatant was removed from each well to leave 100 μL of the cell culture solution. To each well containing the remaining 100 μL of the cell culture solution, the same amount of CellTiter-Glo 2.0 Assay (Promega, Cat #: G9242) was added. The microplate was shaken with a plate mixer for 1 minute and then allowed to stand in a dark place for 10 minutes. Thereafter, the luminescence intensity of viable cells in each well was measured using a microplate reader (PerkinElmer, EnSpire). […] Cell growth rate (%)=T/C×100 T: The luminescence intensity in a well to which the compound of the present invention was added (count per second) C: The luminescence intensity in a well to which dimethylsulfoxide alone was added (count per second)

| Compound | IC50 [1] [nM] | IC50 [2] [nM] | IC50 [3] [nM] |
| --- | --- | --- | --- |
| CC(C)(O)Cn1nnc2cc(-c3ccc(C(=O)N4[C@@H]5CC[C@H]4C[C@@H](N)C5)cc3-c3ccc(C#N)c(F)c3)c(F)c(C(F)F)c21 [Example 250, 5′-((3-endo)-3-amino-8-azabicyclo[3.2.1]octane-8-carbonyl)-2′-(7-(difluoromethyl)-6-fluoro-1-(2-hydroxy-2-methylpropyl)-1H-benzo[d][1,2,3]triazol-5-yl)-3-fluoro-[1,1′-biphenyl]-4-carbonitrile] | 1.2 | 2.36 | 9.3 |
| CC(C)(O)Cn1nnc2cc(-c3ccc(C(=O)N4[C@@H]5CC[C@H]4C[C@@H](N)C5)cc3-c3ccc(C#N)c(F)c3)c(F)c(C#N)c21 [Example 251, 5-(5-((3-endo)-3-amino-8-azabicyclo[3.2.1]octane-8-carbonyl)-4′-cyano-3′-fluoro-[1,1′-biphenyl]-2-yl)-6-fluoro-1-(2-hydroxy-2-methylpropyl)-1H-benzo[d][1,2,3]triazole-7-carbonitrile] | 2.7 | 23.9 | 13.2 |
| N#Cc1ccc(-c2cc(C(=O)N3C4CCC3C(N)C4)ccc2-c2cc3nnn(CC4(O)CCC4)c3c(F)c2F)cc1F [Example 254, 5′-((1S,2S,4R)-rel-2-amino-7-azabicyclo[2.2.1]heptane-7-carbonyl)-2′-(6,7-difluoro-1-((1-hydroxycyclobutyl)methyl)-1H-benzo[d][1,2,3]triazol-5-yl)-3-fluoro-[1,1′-biphenyl]-4-carbonitrile-isomer-X] | 0.18 | 0.2 | 0.36 |
| N#Cc1ccc(-c2cc(C(=O)N3[C@@H]4CC[C@H]3C[C@@H](N)C4)ccc2-c2cc3nnn(CC4(O)CCC4)c3c(F)c2F)cc1F [Example 256, 5′-((3-endo)-3-amino-8-azabicyclo[3.2.1]octane-8-carbonyl)-2′-(6,7-difluoro-1-((1-hydroxycyclobutyl)methyl)-1H-benzo[d][1,2,3]triazol-5-yl)-3-fluoro-[1,1′-biphenyl]-4-carbonitrile] | 0.94 | 1.31 | 2.54 |
| N#Cc1ccc(-c2cc(C(=O)N3[C@@H]4CC[C@H]3C[C@@H](N)C4)ccc2-c2cc3nnn(CC4(O)CCC4)c3c(Cl)c2F)cc1F [Example 259, 5′-((3-endo)-3-amino-8-azabicyclo[3.2.1]octane-8-carbonyl)-2′-(7-chloro-6-fluoro-1-((1-hydroxycyclobutyl)methyl)-1H-benzo[d][1,2,3]triazol-5-yl)-3-fluoro-[1,1′-biphenyl]-4-carbonitrile] | 0.46 | 0.58 | 2.08 |
| N#Cc1ccc(-c2cc(C(=O)N3C4CCC3C(N)C4)ccc2-c2cc3nnn(CC4(O)CCC4)c3c(C(F)F)c2F)cc1F [Example 260, 5′-((1S,2S,4R)-rel-2-amino-7-azabicyclo[2.2.1]heptane-7-carbonyl)-2′-(7-(difluoromethyl)-6-fluoro-1-((1-hydroxycyclobutyl)methyl)-1H-benzo[d][1,2,3]triazol-5-yl)-3-fluoro-[1,1′-biphenyl]-4-carbonitrile-isomer-X] | 0.13 | 0.13 | 0.48 |
| N#Cc1ccc(-c2cc(C(=O)N3C4CCC3C(N)C4)ccc2-c2cc3nnn(CC4(O)CCC4)c3c(C#N)c2F)cc1F [Example 264, 5-(5-((1S,2S,4R)-rel-2-amino-7-azabicyclo[2.2.1]heptane-7-carbonyl)-4′-cyano-3′-fluoro-[1,1′-biphenyl]-2-yl)-6-fluoro-1-((1-hydroxycyclobutyl)methyl)-1H-benzo[d][1,2,3]triazole-7-carbonitrile-isomer-X] | 0.3 | 0.84 | 0.96 |
| N#Cc1ccc(-c2cc(C(=O)N3[C@@H]4CC[C@H]3C[C@@H](N)C4)ccc2-c2cc3nnn(CC4(O)CCC4)c3c(C#N)c2F)cc1F [Example 266, 5-(5-((3-endo)-3-amino-8-azabicyclo[3.2.1]octane-8-carbonyl)-4′-cyano-3′-fluoro-[1,1′-biphenyl]-2-yl)-6-fluoro-1-((1-hydroxycyclobutyl)methyl)-1H-benzo[d][1,2,3]triazole-7-carbonitrile] | 1.85 | 4.63 | 17.5 |
| Cc1c(F)c(-c2ccc(C(=O)N3[C@@H]4CC[C@H]3C[C@@H](N)C4)cc2-c2ccc(C#N)c(F)c2)cc2nnn(CC3(O)CCC3)c12 [Example 272, 5′-((3-endo)-3-amino-8-azabicyclo[3.2.1]octane-8-carbonyl)-3-fluoro-2′-(6-fluoro-1-((1-hydroxycyclobutyl)methyl)-7-methyl-1H-benzo[d][1,2,3]triazol-5-yl)-[1,1′-biphenyl]-4-carbonitrile] | 0.81 | 1.52 | 3.17 |
| CC(C)(O)Cn1nnc2cc(-c3ccc(C(=O)N4[C@@H]5CC[C@H]4C[C@@H](N)C5)cc3-c3ccc(C#N)c(F)c3)c(F)c(Br)c21 [Example 275, 5′-((3-endo)-3-amino-8-azabicyclo[3.2.1]octane-8-carbonyl)-2′-(7-bromo-6-fluoro-1-(2-hydroxy-2-methylpropyl)-1H-benzo[d][1,2,3]triazol-5-yl)-3-fluoro-[1,1′-biphenyl]-4-carbonitrile] | 0.59 | 0.99 | 1.78 |
| CC(C)(O)Cn1nnc2cc(-c3ccc(C(=O)N4[C@@H]5CC[C@H]4C[C@@H](N)C5)cc3-c3ccc(C#N)c(F)c3)c(F)c(C3CC3)c21 [Example 281, 5′-((3-endo)-3-amino-8-azabicyclo[3.2.1]octane-8-carbonyl)-2′-(7-cyclopropyl-6-fluoro-1-(2-hydroxy-2-methylpropyl)-1H-benzo[d][1,2,3]triazol-5-yl)-3-fluoro-[1,1′-biphenyl]-4-carbonitrile] | 8.5 | 23.9 | 32.3 |
| Cc1ccc(-c2ccc(CN3C4CCC3C(N)C4)cc2-c2ccc(C#N)c(F)c2)c(F)c1 [Example 283, 5′-(((1S,2S,4R)-rel-2-amino-7-azabicyclo[2.2.1]heptan-7-yl)methyl)-2″,3-difluoro-4″-methyl-[1,1′:2′,1″-terphenyl]-4-carbonitrile-isomer-X] | 2.1 | 0.79 | 11.1 |
| CC(C)(O)Cn1nnc2cc(-c3ccc(CN4C5CCC4C(N)C5)cc3-c3ccc(C#N)c(F)c3)c(F)c(F)c21 [Example 285, 5′-(((1S,2S,4R)-rel-2-amino-7-azabicyclo[2.2.1]heptan-7-yl)methyl)-2′-(6,7-difluoro-1-(2-hydroxy-2-methylpropyl)-1H-benzo[d][1,2,3]triazol-5-yl)-3-fluoro-[1,1′-biphenyl]-4-carbonitrile-isomer-X dihydrochloride] | 0.09 | 0.046 | 0.49 |
| N#Cc1ccc(-c2cc(CN3C4CCC3C(N)C4)ccc2-c2cc3nnn(CC4(O)CCC4)c3c(Cl)c2F)cc1F [Example 286, 5′-(((1S,2S,4R)-rel-2-amino-7-azabicyclo[2.2.1]heptan-7-yl)methyl)-2′-(7-chloro-6-fluoro-1-((1-hydroxycyclobutyl)methyl)-1H-benzo[d][1,2,3]triazol-5-yl)-3-fluoro-[1,1′-biphenyl]-4-carbonitrile-isomer-X dihydrochloride] | 0.083 | 0.036 | 0.17 |
| CCC(O)(CC)Cn1nnc2cc(-c3ccc(CN4C5CCC4C(N)C5)cc3-c3ccc(C#N)c(F)c3)c(F)c(Cl)c21 [Example 288, 5′-(((1S,2S,4R)-rel-2-amino-7-azabicyclo[2.2.1]heptan-7-yl)methyl)-2′-(7-chloro-1-(2-ethyl-2-hydroxybutyl)-6-fluoro-1H-benzo[d][1,2,3]triazol-5-yl)-3-fluoro-[1,1′-biphenyl]-4-carbonitrile-isomer-X dihydrochloride] | 0.22 | 0.062 | 1.29 |
| CC(C)(O)Cn1ccc2cc(-c3ccc(CN4C5CCC4C(N)C5)cc3-c3ccc(C#N)c(F)c3)c(F)cc21 [Example 289, 5′-(((1S,2S,4R)-rel-2-amino-7-azabicyclo[2.2.1]heptan-7-yl)methyl)-3-fluoro-2′-(6-fluoro-1-(2-hydroxy-2-methylpropyl)-1H-indol-5-yl)-[1,1′-biphenyl]-4-carbonitrile-isomer-X dihydrochloride] | 0.094 | 0.038 | 0.97 |
| CC(C)(O)Cc1ccc(-c2ccc(CN3CC[C@H](N)C3)cc2-c2ccc(C#N)c(F)c2)c(F)c1 [Example 291, (S)-5′-((3-aminopyrrolidin-1-yl)methyl)-2″,3-difluoro-4″-(2-hydroxy-2-methylpropyl)-[1,1′:2′,1″-terphenyl]-4-carbonitrile dihydrochloride] | 4.65 | 1.21 | 10.4 |
| Cc1ccc(-c2ccc(C(C)N3C4CCC3C(N)C4)cc2-c2ccc(C#N)c(F)c2)c(F)c1 [Example 292, 5′-(1-((1S,2S,4R)-rel-2-amino-7-azabicyclo[2.2.1]heptan-7-yl)ethyl)-2″,3-difluoro-4″-methyl-[1,1′:2′,1″-terphenyl]-4-carbonitrile-isomer-X dihydrochloride] | 3.29 | 0.91 | 10.3 |
